Test results: PubChem BioAssay (NCI)
Values joined by “and” are separate entries in the source; they are usually repeats but may differ in a detail not shown here. Equal entries are not always repeated.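 Values below derive from 48-hour exposures of cells grown in 96-well plates, with endpoints linearly interpolated between the two concentrations bracketing the appropriate inhibition level. GI50 marks 50% less growth. TGI denotes the concentration required for complete inhibition of growth.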

Tests used:
Test in all cases: inhibition of tumour cell growth, NCI panel, 48 h
SN12C renal = test system: SN12C renal
SR leukemia = test system: SR leukemia
SW-620 colon = test system: SW-620 colon
HL-60(TB) leukemia = test system: HL-60(TB) leukemia
COLO 205 colon = test system: COLO 205 colon
786-0 renal = test system: 786-0 renal
MALME-3M melanoma = test system: MALME-3M melanoma
MOLT-4 leukemia = test system: MOLT-4 leukemia
UO-31 renal = test system: UO-31 renal
MDA-MB-231 breast = test system: MDA-MB-231 breast
UACC-257 melanoma = test system: UACC-257 melanoma
OVCAR-4 ovarian = test system: OVCAR-4 ovarian
NCI-H522 lung = test system: NCI-H522 lung
OVCAR-5 ovarian = test system: OVCAR-5 ovarian
OVCAR-3 ovarian = test system: OVCAR-3 ovarian
HOP-62 NSCLC = test system: HOP-62 NSCLC
KM12 colon = test system: KM12 colon
MDA-MB-435 = test system: MDA-MB-435
A549 NSCLC = test system: A549 NSCLC
HCT-116 colon = test system: HCT-116 colon
HCT-15 colon = test system: HCT-15 colon
U251 CNS = test system: U251 CNS
RPMI-8226 leukemia = test system: RPMI-8226 leukemia
HS 578T breast = test system: HS 578T breast
CAKI-1 renal = test system: CAKI-1 renal
RXF 393 renal = test system: RXF 393 renal
NCI-H226 lung = test system: NCI-H226 lung
M14 melanoma = test system: M14 melanoma
HOP-92 NSCLC = test system: HOP-92 NSCLC
EKVX NSCLC = test system: EKVX NSCLC
ACHN renal = test system: ACHN renal
DU-145 prostate = test system: DU-145 prostate
PC-3 prostate = test system: PC-3 prostate
SK-OV-3 ovarian = test system: SK-OV-3 ovarian
SF-295 CNS = test system: SF-295 CNS
HCC-2998 colon = test system: HCC-2998 colon
UACC-62 melanoma = test system: UACC-62 melanoma
HT29 colon = test system: HT29 colon
CCRF-CEM leukemia = test system: CCRF-CEM leukemia
TK-10 renal = test system: TK-10 renal
SK-MEL-28 melanoma = test system: SK-MEL-28 melanoma
NCI/ADR-RES ovarian = test system: NCI/ADR-RES ovarian
NCI-H460 lung = test system: NCI-H460 lung
A498 renal = test system: A498 renal
SF-539 CNS = test system: SF-539 CNS
OVCAR-8 ovarian = test system: OVCAR-8 ovarian
SF-268 CNS = test system: SF-268 CNS
SK-MEL-2 melanoma = test system: SK-MEL-2 melanoma
SNB-19 CNS = test system: SNB-19 CNS
SNB-75 CNS = test system: SNB-75 CNS
BT-549 breast = test system: BT-549 breast
SK-MEL-5 melanoma = test system: SK-MEL-5 melanoma
IGROV1 ovarian = test system: IGROV1 ovarian
MCF7 breast = test system: MCF7 breast
NCI-H23 lung = test system: NCI-H23 lung
K-562 leukemia = test system: K-562 leukemia
LOX IMVI melanoma = test system: LOX IMVI melanoma
T-47D breast = test system: T-47D breast

O=C(Nc1ccc([N+](=O)[O-])cc1Cl)c1cc(Cl)ccc1O
GI50 (SN12C renal): 115 nM and 195 nM | GI50 (SR leukemia): 145 nM and 134 nM | TGI (SR leukemia): 761 nM | GI50 (SW-620 colon): 163 nM and 333 nM | TGI (SW-620 colon): 15500 nM and 11900 nM | GI50 (HL-60(TB) leukemia): 115 nM | TGI (HL-60(TB) leukemia): 244 nM | GI50 (COLO 205 colon): 1340 nM and 1520 nM | TGI (COLO 205 colon): 3260 nM and 3220 nM | GI50 (786-0 renal): 142 nM and 268 nM | TGI (786-0 renal): 488 nM and 825 nM | GI50 (MALME-3M melanoma): 101 nM and 194 nM | TGI (MALME-3M melanoma): 338 nM and 744 nM | GI50 (MOLT-4 leukemia): 121 nM and 273 nM | TGI (MOLT-4 leukemia): 374 nM and 1030 nM | GI50 (UO-31 renal): 129 nM and 254 nM | TGI (UO-31 renal): 437 nM and 1010 nM | GI50 (MDA-MB-231 breast): 110 nM and 162 nM | TGI (MDA-MB-231 breast): 461 nM and 593 nM | GI50 (UACC-257 melanoma): 84.6 nM and 185 nM | TGI (UACC-257 melanoma): 267 nM and 603 nM | GI50 (OVCAR-4 ovarian): 156 nM and 259 nM | TGI (OVCAR-4 ovarian): 13400 nM and > 100000 nM | GI50 (NCI-H522 lung): 76.4 nM and 171 nM | GI50 (OVCAR-5 ovarian): 249 nM and 373 nM | TGI (OVCAR-5 ovarian): 50000 nM and > 95500 nM | GI50 (OVCAR-3 ovarian): 141 nM and 283 nM | TGI (OVCAR-3 ovarian): 2590 nM and 21500 nM | GI50 (HOP-62 NSCLC): 149 nM and 262 nM | TGI (HOP-62 NSCLC): 469 nM | GI50 (KM12 colon): 169 nM and 303 nM | TGI (KM12 colon): 608 nM and 1200 nM | GI50 (MDA-MB-435): 115 nM and 244 nM | TGI (MDA-MB-435): 381 nM and 1330 nM | GI50 (A549 NSCLC): 163 nM and 327 nM | TGI (A549 NSCLC): 23400 nM and > 100000 nM | GI50 (HCT-116 colon): 121 nM and 172 nM | TGI (HCT-116 colon): 397 nM and 483 nM | GI50 (HCT-15 colon): 154 nM and 260 nM | TGI (HCT-15 colon): 3200 nM | GI50 (U251 CNS): 97.1 nM and 217 nM | GI50 (RPMI-8226 leukemia): 50.2 nM and 176 nM | TGI (RPMI-8226 leukemia): 287 nM | GI50 (HS 578T breast): 133 nM and 207 nM | GI50 (CAKI-1 renal): 108 nM and 227 nM | TGI (CAKI-1 renal): 4210 nM | GI50 (RXF 393 renal): 135 nM and 268 nM | TGI (RXF 393 renal): 434 nM and 2710 nM | GI50 (NCI-H226 lung): 155 nM and 334 nM | GI50 (M14 melanoma): 160 nM and 318 nM | TGI (M14 melanoma): 645 nM and 1750 nM | GI50 (HOP-92 NSCLC): 19.4 nM and 59.1 nM | TGI (HOP-92 NSCLC): 100 nM and 261 nM | GI50 (EKVX NSCLC): 160 nM and 315 nM | GI50 (ACHN renal): 155 nM and 258 nM | TGI (ACHN renal): 19400 nM | GI50 (DU-145 prostate): 199 nM and 352 nM | TGI (DU-145 prostate): 6220 nM and 35500 nM | GI50 (PC-3 prostate): 203 nM and 295 nM | TGI (PC-3 prostate): 5420 nM and > 38700 nM | GI50 (SK-OV-3 ovarian): 150 nM and 234 nM | TGI (SK-OV-3 ovarian): 660 nM | GI50 (SF-295 CNS): 112 nM and 207 nM | TGI (SF-295 CNS): 308 nM and 609 nM | GI50 (HCC-2998 colon): 215 nM and 452 nM | TGI (HCC-2998 colon): 2580 nM and 3430 nM | GI50 (UACC-62 melanoma): 77.3 nM and 67.8 nM | TGI (UACC-62 melanoma): 568 nM and 392 nM | GI50 (HT29 colon): 1260 nM and 2160 nM | TGI (HT29 colon): 3680 nM and > 28800 nM | GI50 (CCRF-CEM leukemia): 133 nM and 305 nM | GI50 (TK-10 renal): 165 nM and 307 nM | TGI (TK-10 renal): 1670 nM and 984 nM | GI50 (SK-MEL-28 melanoma): 165 nM and 243 nM | TGI (SK-MEL-28 melanoma): 2030 nM and 2010 nM | GI50 (NCI/ADR-RES ovarian): 137 nM and 231 nM | TGI (NCI/ADR-RES ovarian): 536 nM and 1350 nM | GI50 (NCI-H460 lung): 134 nM and 213 nM | TGI (NCI-H460 lung): 5980 nM | GI50 (A498 renal): 32.9 nM and 83.2 nM | TGI (A498 renal): 171 nM and 353 nM | GI50 (SF-539 CNS): 188 nM and 261 nM | TGI (SF-539 CNS): 4300 nM and 12000 nM | GI50 (OVCAR-8 ovarian): 147 nM and 330 nM | TGI (OVCAR-8 ovarian): 605 nM | GI50 (SF-268 CNS): 152 nM and 317 nM | GI50 (SK-MEL-2 melanoma): 111 nM and 167 nM | TGI (SK-MEL-2 melanoma): 268 nM and 443 nM | GI50 (SNB-19 CNS): 164 nM and 248 nM | TGI (SNB-19 CNS): 50000 nM and > 100000 nM | GI50 (SNB-75 CNS): 155 nM and 211 nM | TGI (SNB-75 CNS): 2490 nM and 864 nM | GI50 (BT-549 breast): 105 nM and 156 nM | TGI (BT-549 breast): 344 nM and 647 nM | GI50 (SK-MEL-5 melanoma): 51.5 nM and 116 nM | TGI (SK-MEL-5 melanoma): 150 nM and 276 nM | GI50 (IGROV1 ovarian): 229 nM and 294 nM | TGI (IGROV1 ovarian): 18700 nM and 8490 nM | GI50 (MCF7 breast): 151 nM and 286 nM | GI50 (NCI-H23 lung): 104 nM and 190 nM | TGI (NCI-H23 lung): 390 nM and 737 nM | GI50 (K-562 leukemia): 120 nM and 210 nM | GI50 (LOX IMVI melanoma): 162 nM and 244 nM | GI50 (T-47D breast): 107 nM and 188 nM | TGI (T-47D breast): 361 nM and 836 nM
